Measurements taken from the Biogen ADME set (Fang et al. 2023).
Values after ≈ are worked out from the molar mass of the structure shown.

Conditions: for aqueous solubility: pH 6.8

Row | MDR1-MDCK efflux ratio | intrinsic clearance, human liver microsomes | intrinsic clearance, rat liver microsomes | aqueous solubility | fraction unbound, rat plasma | fraction unbound, human plasma | Compound
1 | 0.257 |  |  | 0.29 µg/mL (≈ 1.06 µM) |  |  | c1ccc(OCc2nc3cc4ccccc4cc3[nH]2)cc1
2 | 78.1 | 8.55 mL/min/kg | 69.1 mL/min/kg |  |  |  | COc1nc2c(cc1CNC(=O)N1CCC[C@@H]1CO)C(=O)N(C1CCCC1)C2
3 | 73.4 | 83.6 mL/min/kg | 288 mL/min/kg |  |  |  | Cc1cn2cc(C(=O)N(C)CCO)cc(N[C@@H]3CCOc4cccc(C)c43)c2n1
4 | 2.8 | 85.2 mL/min/kg | 44.9 mL/min/kg |  |  |  | COCC(=O)Nc1ccc(C)c(NC(=O)[C@H](OC)c2ccccc2)c1
5 |  | ≤ 4.74 mL/min/kg | 58.9 mL/min/kg | 36.4 µg/mL (≈ 140 µM) |  |  | O=C(NCc1cccc(O)c1)Nc1ccccc1F
6 | 0.882 | 66.3 mL/min/kg | 577 mL/min/kg |  |  |  | COc1cccc(O[C@H]2CCN(C(=O)c3cc(-c4ccc(F)cc4)on3)CC[C@@H]2O)c1
7 |  | ≤ 4.74 mL/min/kg | ≤ 10.7 mL/min/kg | 62.9 µg/mL (≈ 194 µM) |  |  | CS(=O)(=O)CCN1CCC(n2c(=O)[nH]c3ccccc32)CC1
8 | 0.596 | 8.8 mL/min/kg | 221 mL/min/kg | 11.2 µg/mL (≈ 51.4 µM) |  |  | Cc1nnnn1CCN(C)c1ccccc1
9 | 0.2 | 85.2 mL/min/kg | 477 mL/min/kg |  |  |  | Cc1ccc(Nc2ccnc(Nc3ccc(C)cc3)n2)cc1
10 | 0.744 |  |  |  | 0.347 |  | CC(C)CC(NC(=O)C(O)C(N)Cc1ccccc1)C(=O)O (stereo unspecified)
11 | 2.16 | 51.4 mL/min/kg | 419 mL/min/kg | 54.8 µg/mL (≈ 143 µM) |  |  | O=C(CN1CCCC(c2cccc(-c3cccc(Cl)c3)n2)C1)N1CCCC1 (stereo unspecified)
12 | 0.668 | ≤ 4.74 mL/min/kg | 12.6 mL/min/kg | 32.6 µg/mL (≈ 155 µM) |  |  | COc1cc2nc(N)sc2cc1OC
13 |  | 187 mL/min/kg | 1320 mL/min/kg | 31.4 µg/mL (≈ 116 µM) |  |  | Cc1ccc(NC(=O)[C@H]2COc3ccccc3O2)nc1
14 |  | 14.7 mL/min/kg | 233 mL/min/kg | 47.8 µg/mL (≈ 126 µM) |  |  | O=C(C1CC1c1ccc(F)cc1)N1CCC(n2c(=O)[nH]c3ccccc32)CC1 (stereo unspecified)
15 | 0.768 | 21.9 mL/min/kg | 264 mL/min/kg | 37.9 µg/mL (≈ 130 µM) |  |  | CCOCC(=O)NCc1cc(C2CC2)n(C2CCCC2)n1
16 | 0.886 | 11.8 mL/min/kg | 860 mL/min/kg |  |  |  | CNC(=O)c1ccc(N2CCCc3cc(OC)ccc3C2)nn1
17 | 2.21 | 1340 mL/min/kg | 4200 mL/min/kg |  |  |  | COc1ccc(NC(C)=O)cc1NC(=O)CN(Cc1ccccc1)C(C)C
18 | 0.634 | 52.4 mL/min/kg | 1060 mL/min/kg |  |  |  | CN(CCn1cnc(C#N)c1C#N)c1ccccc1
19 | 0.576 | 131 mL/min/kg | 1280 mL/min/kg |  |  |  | CN(Cc1nc2c(s1)CCCC2)c1cnccn1

Continued, compound first:

Row | Compound | MDR1-MDCK efflux ratio | intrinsic clearance, human liver microsomes | intrinsic clearance, rat liver microsomes | aqueous solubility | fraction unbound, rat plasma | fraction unbound, human plasma
20 | COCC(=O)N1CC[C@H](c2nnc(-c3ccc(C)cc3)o2)C1 | 1.36 | ≤ 4.74 mL/min/kg | ≤ 10.7 mL/min/kg | 52.7 µg/mL (≈ 175 µM) |  | 
21 | CN1C(=O)[C@H](Cc2ccccc2)N[C@@H]1C(C)(C)C | 0.771 | 53.9 mL/min/kg | 747 mL/min/kg | 30.3 µg/mL (≈ 123 µM) |  | 
22 | COc1ccccc1Oc1c(NS(=O)(=O)c2ccc(C(C)(C)C)cc2)nc(-c2ncccn2)nc1OCCO | 88.2 | 16 mL/min/kg | 71.8 mL/min/kg |  |  | 
23 | COC(=O)N1CC(NCc2c(C)nn(C(C)(C)C)c2C)C1 | 1.79 | ≤ 4.74 mL/min/kg | 61.2 mL/min/kg |  |  | 
24 | Cc1cc(C(=O)Nc2ncccc2C)c2ccccc2n1 |  | 13.7 mL/min/kg | 58.3 mL/min/kg | 44 µg/mL (≈ 159 µM) |  | 
25 | CC(C)n1cc(-c2ccc3c(c2)N(C)CC3)c2c(NS(=O)(=O)c3ccn(C)n3)ccnc21 | 2.48 | 69.5 mL/min/kg | 115 mL/min/kg | 19.4 µg/mL (≈ 43.1 µM) |  | 
26 | Cc1nn(CCNS(=O)(=O)N2CCCCC2)c(C)c1C | 1.53 | 163 mL/min/kg | 3200 mL/min/kg |  |  | 
27 | O=C(COc1ccc2oc3c(c2c1)CCCC3)N1CCOCC1 |  | 31 mL/min/kg | 2980 mL/min/kg | 43 µg/mL (≈ 136 µM) |  | 
28 | Cc1cc(C(=O)N(C)Cc2ccsc2)no1 | 0.653 | 11 mL/min/kg | 241 mL/min/kg | 34.1 µg/mL (≈ 144 µM) |  | 
29 | O=C(c1ccc(NS(=O)(=O)c2cccc3cccnc23)cc1)N1CCN(CC2CC2)CC1 |  | 75.9 mL/min/kg | 604 mL/min/kg |  |  | 
30 | CS(=O)(=O)NCc1cc2n(n1)CCN(C1Cc3ccccc3C1)C2 | 2.92 | ≤ 4.74 mL/min/kg | 27.7 mL/min/kg |  |  | 
31 | Cc1ncsc1-c1cncc(CC2CCCN(C)C2)n1 (stereo unspecified) | 0.97 | 32 mL/min/kg | 108 mL/min/kg |  |  | 
32 | COc1ccc(CNC(=O)CCSc2nc3c(=O)n(C)c(=O)n(C)c3n2C)cc1 |  | 52 mL/min/kg | 247 mL/min/kg |  |  | 
33 | Cc1ccc(NC(=O)CN2CCCN(c3ccc(C(F)(F)F)cn3)CC2)cc1 | 0.857 | 126 mL/min/kg | 602 mL/min/kg | 12.9 µg/mL (≈ 33 µM) |  | 
34 | CN(CC(=O)Nc1cccc(S(=O)(=O)N2CCCC2)c1)C1CCCCC1 | 2.29 | 601 mL/min/kg | 2980 mL/min/kg |  |  | 
35 | Cc1nn(C)c(C)c1NC(=O)CN1CCN(c2nccs2)CC1 | 18.9 | ≤ 4.74 mL/min/kg | 14.3 mL/min/kg | 58.2 µg/mL (≈ 174 µM) |  | 
36 | c1ccc2[nH]c(SCc3cn4ccccc4n3)nc2c1 |  | 86.2 mL/min/kg | 462 mL/min/kg | 44.9 µg/mL (≈ 160 µM) |  | 
37 | O=C1N=C(N2CCCCN2)S/C1=C\c1ccc(F)cc1O | 1.69 |  |  | 0.9 µg/mL (≈ 2.93 µM) |  | 
38 | NC(=O)c1noc([C@@H](CCCC2CCCCC2)CC(=O)NO)n1 |  | 7.31 mL/min/kg |  |  |  | 
39 | Cc1ccc(NC(=O)CN2CCCC(c3nc4ccccc4o3)C2)cc1C (stereo unspecified) | 1.08 | 216 mL/min/kg | 2610 mL/min/kg | 10 µg/mL (≈ 27.5 µM) |  | 

Row | Compound | MDR1-MDCK efflux ratio | intrinsic clearance, human liver microsomes | intrinsic clearance, rat liver microsomes | aqueous solubility | fraction unbound, rat plasma | fraction unbound, human plasma
40 | CCOc1cc(CNc2ccc(N3CCOCC3)c(C(=O)O)c2)cc(Cl)c1OC |  | 21.1 mL/min/kg | 154 mL/min/kg | 22.7 µg/mL (≈ 54 µM) |  | 
41 | CNC(=O)C1(Cc2ccc(-c3ccncc3)cc2)CCN(Cc2cccc(F)c2)C1 (stereo unspecified) |  | 250 mL/min/kg | 891 mL/min/kg | 57.5 µg/mL (≈ 143 µM) | 0.0519 | 0.127
42 | CN(C)CCn1ccc2cc(NC(=O)c3ccc(=O)[nH]n3)ccc21 |  |  |  | 53.5 µg/mL (≈ 164 µM) |  | 
43 | Fc1ccc2oc(Cn3nnc(-c4ccsc4)n3)nc2c1 |  |  |  | 30.2 µg/mL (≈ 100 µM) |  | 
44 | CCOC(=O)C1(Cc2cc(-c3ccc(F)cc3)no2)CCN(Cc2ccccc2O)CC1 | 2.16 | 155 mL/min/kg | 790 mL/min/kg | 6.94 µg/mL (≈ 15.8 µM) |  | 
45 | Cc1nc(-c2ccccc2)c(C(=O)Nc2cc(Cl)cc(Cl)c2)s1 |  | 25.7 mL/min/kg | 230 mL/min/kg |  |  | 
46 | CSc1ccc(C)c(C(=O)NCCN2CCC(C)CC2)c1 | 0.841 | 39.6 mL/min/kg | 1750 mL/min/kg |  |  | 
47 | O=c1[nH]c2ccccc2n1C1CCN(Cc2nnc(-c3cc4c(s3)CCCC4)o2)CC1 |  | 51.8 mL/min/kg | 1090 mL/min/kg | 2.45 µg/mL (≈ 5.63 µM) |  | 
48 | CC(=O)Nc1cccc(CN2CCCN(C(C)=O)c3ccccc32)c1 | 15.9 | 139 mL/min/kg | 919 mL/min/kg | 29.6 µg/mL (≈ 87.8 µM) |  | 
49 | CCc1noc(-c2ccc(CCN)cc2)n1 | 0.479 | 394 mL/min/kg | 54.5 mL/min/kg | 44.1 µg/mL (≈ 203 µM) |  | 
50 | N#Cc1cc(F)c(C(=O)Nc2ccnc(NC(=O)[C@H]3C[C@H]3F)c2)c(Cl)c1 | 42.6 | ≤ 4.74 mL/min/kg |  | 67.5 µg/mL (≈ 179 µM) |  | 
51 | CN(Cc1cccc(C#N)c1)C(=O)CC(C)(C)C |  |  |  | 29.9 µg/mL (≈ 123 µM) |  | 
52 | N#Cc1cnc2ccccc2c1OCCO |  | 10.4 mL/min/kg | 12.7 mL/min/kg |  |  | 
53 | COc1ccc(-c2nc(C3CCN(C(=O)c4sc(C)nc4C)CC3)[nH]c2C(N)=O)cc1 | 42.1 | ≤ 4.74 mL/min/kg | 39.4 mL/min/kg | 61.8 µg/mL (≈ 141 µM) |  | 
54 | Cc1cc(C)n2ncc(C(=O)NC3CCCCC3)c2n1 | 0.702 | 55.8 mL/min/kg | 166 mL/min/kg | 4.94 µg/mL (≈ 18.1 µM) |  | 
55 | CCCn1cc(C(=O)N2CCC(c3n[nH]cc3C(=O)N(C)Cc3ccccc3)CC2)cn1 | 9.45 | 129 mL/min/kg | 561 mL/min/kg | 45.3 µg/mL (≈ 104 µM) |  | 
56 | OC1(Cn2nnc(-c3cccnc3)n2)CCCCC1 | 0.66 | ≤ 4.74 mL/min/kg | 142 mL/min/kg | 25.1 µg/mL (≈ 96.7 µM) |  | 
57 | Cn1cc(NC(=O)c2cnn3cccnc23)c(C2CCCCC2)n1 | 1.23 | 37.7 mL/min/kg | 188 mL/min/kg |  |  | 
58 | O=C(C1CCCCC1)N1CCC[C@H]1Cn1nnc(-c2cccs2)n1 |  | 130 mL/min/kg | 5120 mL/min/kg |  |  | 
59 | CN(CCC#N)Cc1cc(C#N)ccc1F |  | ≤ 4.74 mL/min/kg | ≤ 10.7 mL/min/kg | 31.4 µg/mL (≈ 145 µM) |  | 
